Assay: molar heat capacity at constant pressure
Details: 101.33 kPa

CCCCc1ccc(C(=O)Oc2ccc(C#N)c(F)c2)cc1 [4-cyano-3-fluorophenyl 4-butylbenzoate]
Details | molar heat capacity at constant pressure [J/K/mol]
221.07 K, Crystal 2, Small (less than 1 g) adiabatic calorimetry | 311.55
221.65 K, Crystal 1, Small (less than 1 g) adiabatic calorimetry | 297.64
222.84 K, Crystal 1, Small (less than 1 g) adiabatic calorimetry | 299.23
223.8 K, Crystal 2, Small (less than 1 g) adiabatic calorimetry | 314.36
223.83 K, Crystal 1, Small (less than 1 g) adiabatic calorimetry | 300.59
224.03 K, Crystal 1, Small (less than 1 g) adiabatic calorimetry | 300.76
225.22 K, Crystal 1, Small (less than 1 g) adiabatic calorimetry | 302.28
226.41 K, Crystal 1, Small (less than 1 g) adiabatic calorimetry | 303.96
226.54 K, Crystal 2, Small (less than 1 g) adiabatic calorimetry | 317.16
226.65 K, Crystal 1, Small (less than 1 g) adiabatic calorimetry | 304.49
227.59 K, Crystal 1, Small (less than 1 g) adiabatic calorimetry | 305.68
228.77 K, Crystal 1, Small (less than 1 g) adiabatic calorimetry | 307.52
229.29 K, Crystal 2, Small (less than 1 g) adiabatic calorimetry | 320.04
229.47 K, Crystal 1, Small (less than 1 g) adiabatic calorimetry | 308.62
229.94 K, Crystal 1, Small (less than 1 g) adiabatic calorimetry | 309.12
230 K, Crystal 1, Vacuum adiabatic calorimetry | 309.39
230 K, Crystal 2, Vacuum adiabatic calorimetry | 320.68
231.12 K, Crystal 1, Small (less than 1 g) adiabatic calorimetry | 310.59
232.06 K, Crystal 2, Small (less than 1 g) adiabatic calorimetry | 322.55
232.28 K, Crystal 1, Small (less than 1 g) adiabatic calorimetry | 312.29
232.3 K, Crystal 1, Small (less than 1 g) adiabatic calorimetry | 312.7
233.45 K, Crystal 1, Small (less than 1 g) adiabatic calorimetry | 313.85
234.61 K, Crystal 1, Small (less than 1 g) adiabatic calorimetry | 315.48
234.84 K, Crystal 2, Small (less than 1 g) adiabatic calorimetry | 325.57
235.14 K, Crystal 1, Small (less than 1 g) adiabatic calorimetry | 316.89
235.77 K, Crystal 1, Small (less than 1 g) adiabatic calorimetry | 317.02
236.93 K, Crystal 1, Small (less than 1 g) adiabatic calorimetry | 318.75
237.63 K, Crystal 2, Small (less than 1 g) adiabatic calorimetry | 328.79
238.05 K, Crystal 1, Small (less than 1 g) adiabatic calorimetry | 321.4
238.08 K, Crystal 1, Small (less than 1 g) adiabatic calorimetry | 320.42
239.23 K, Crystal 1, Small (less than 1 g) adiabatic calorimetry | 322.04
240 K, Crystal 1, Vacuum adiabatic calorimetry | 324.53
240 K, Crystal 2, Vacuum adiabatic calorimetry | 332.29
240.38 K, Crystal 1, Small (less than 1 g) adiabatic calorimetry | 323.67
240.43 K, Crystal 2, Small (less than 1 g) adiabatic calorimetry | 332.92
241.04 K, Crystal 1, Small (less than 1 g) adiabatic calorimetry | 326.21
241.52 K, Crystal 1, Small (less than 1 g) adiabatic calorimetry | 325.48
242.66 K, Crystal 1, Small (less than 1 g) adiabatic calorimetry | 327.48
243.24 K, Crystal 2, Small (less than 1 g) adiabatic calorimetry | 336.05
243.8 K, Crystal 1, Small (less than 1 g) adiabatic calorimetry | 328.63
244.07 K, Crystal 1, Small (less than 1 g) adiabatic calorimetry | 330.21
246.07 K, Crystal 1, Small (less than 1 g) adiabatic calorimetry | 331.47
247.13 K, Crystal 1, Small (less than 1 g) adiabatic calorimetry | 334.86
247.2 K, Crystal 1, Small (less than 1 g) adiabatic calorimetry | 333.06
248.33 K, Crystal 1, Small (less than 1 g) adiabatic calorimetry | 334.82
249.45 K, Crystal 1, Small (less than 1 g) adiabatic calorimetry | 336.63
250 K, Crystal 1, Vacuum adiabatic calorimetry | 339.52
250.22 K, Crystal 1, Small (less than 1 g) adiabatic calorimetry | 339.88
250.57 K, Crystal 1, Small (less than 1 g) adiabatic calorimetry | 338.23
251.69 K, Crystal 1, Small (less than 1 g) adiabatic calorimetry | 339.75
252.81 K, Crystal 1, Small (less than 1 g) adiabatic calorimetry | 341.78
253.35 K, Crystal 1, Small (less than 1 g) adiabatic calorimetry | 344.81
253.92 K, Crystal 1, Small (less than 1 g) adiabatic calorimetry | 343.44
255.03 K, Crystal 1, Small (less than 1 g) adiabatic calorimetry | 345.42
256.14 K, Crystal 1, Small (less than 1 g) adiabatic calorimetry | 347.42
256.51 K, Crystal 1, Small (less than 1 g) adiabatic calorimetry | 349.77
257.24 K, Crystal 1, Small (less than 1 g) adiabatic calorimetry | 349.12
258.34 K, Crystal 1, Small (less than 1 g) adiabatic calorimetry | 350.75
259.44 K, Crystal 1, Small (less than 1 g) adiabatic calorimetry | 352.9
259.7 K, Crystal 1, Small (less than 1 g) adiabatic calorimetry | 354.86
260 K, Crystal 1, Vacuum adiabatic calorimetry | 355.31
260.54 K, Crystal 1, Small (less than 1 g) adiabatic calorimetry | 354.79
261.63 K, Crystal 1, Small (less than 1 g) adiabatic calorimetry | 356.59
262.72 K, Crystal 1, Small (less than 1 g) adiabatic calorimetry | 358.59
262.92 K, Crystal 1, Small (less than 1 g) adiabatic calorimetry | 359.67
263.8 K, Crystal 1, Small (less than 1 g) adiabatic calorimetry | 360.46
264.89 K, Crystal 1, Small (less than 1 g) adiabatic calorimetry | 362.63
265.96 K, Crystal 1, Small (less than 1 g) adiabatic calorimetry | 364.99
266.18 K, Crystal 1, Small (less than 1 g) adiabatic calorimetry | 364.4
267.04 K, Crystal 1, Small (less than 1 g) adiabatic calorimetry | 367.18
268.11 K, Crystal 1, Small (less than 1 g) adiabatic calorimetry | 369.24
269.18 K, Crystal 1, Small (less than 1 g) adiabatic calorimetry | 371.72
269.46 K, Crystal 1, Small (less than 1 g) adiabatic calorimetry | 369.89
270 K, Crystal 1, Vacuum adiabatic calorimetry | 371.52
270.25 K, Crystal 1, Small (less than 1 g) adiabatic calorimetry | 373.77
271.31 K, Crystal 1, Small (less than 1 g) adiabatic calorimetry | 375.16
272.37 K, Crystal 1, Small (less than 1 g) adiabatic calorimetry | 378.43
272.76 K, Crystal 1, Small (less than 1 g) adiabatic calorimetry | 379.8
273.42 K, Crystal 1, Small (less than 1 g) adiabatic calorimetry | 380.54
274.47 K, Crystal 1, Small (less than 1 g) adiabatic calorimetry | 383.84
275.53 K, Crystal 1, Small (less than 1 g) adiabatic calorimetry | 385.34
276.08 K, Crystal 1, Small (less than 1 g) adiabatic calorimetry | 388.45
276.58 K, Crystal 1, Small (less than 1 g) adiabatic calorimetry | 389.76
277.62 K, Crystal 1, Small (less than 1 g) adiabatic calorimetry | 392.5
278.67 K, Crystal 1, Small (less than 1 g) adiabatic calorimetry | 396.43
279.42 K, Crystal 1, Small (less than 1 g) adiabatic calorimetry | 397.42
279.7 K, Crystal 1, Small (less than 1 g) adiabatic calorimetry | 398.5
280 K, Crystal 1, Vacuum adiabatic calorimetry | 397.19
281.47 K, Crystal 1, Small (less than 1 g) adiabatic calorimetry | 402.8
282.22 K, Crystal 1, Small (less than 1 g) adiabatic calorimetry | 405.47
282.99 K, Crystal 1, Small (less than 1 g) adiabatic calorimetry | 408.97
283.75 K, Crystal 1, Small (less than 1 g) adiabatic calorimetry | 414.38
284.5 K, Crystal 1, Small (less than 1 g) adiabatic calorimetry | 422.32
285.25 K, Crystal 1, Small (less than 1 g) adiabatic calorimetry | 436.88
285.98 K, Crystal 1, Small (less than 1 g) adiabatic calorimetry | 474.25

Liquid
Details | molar heat capacity at constant pressure [J/K/mol]
289.24 K, Small (less than 1 g) adiabatic calorimetry | 479.05
289.97 K, Small (less than 1 g) adiabatic calorimetry | 476.93
290 K, Vacuum adiabatic calorimetry | 473.62
290.7 K, Small (less than 1 g) adiabatic calorimetry | 476.25
291.67 K, Small (less than 1 g) adiabatic calorimetry | 476.45
291.8 K, Small (less than 1 g) adiabatic calorimetry | 475.34
293.12 K, Small (less than 1 g) adiabatic calorimetry | 477.07
294.48 K, Small (less than 1 g) adiabatic calorimetry | 476.74
295.04 K, Small (less than 1 g) adiabatic calorimetry | 477.7
297.17 K, Small (less than 1 g) adiabatic calorimetry | 477.75
297.43 K, Small (less than 1 g) adiabatic calorimetry | 478.84
298.15 K, Vacuum adiabatic calorimetry | 478.16
299.87 K, Small (less than 1 g) adiabatic calorimetry | 478.89
300 K, Vacuum adiabatic calorimetry | 478.96
302.6 K, Small (less than 1 g) adiabatic calorimetry | 480.42
305.34 K, Small (less than 1 g) adiabatic calorimetry | 481.47
308.1 K, Small (less than 1 g) adiabatic calorimetry | 482.84
310 K, Vacuum adiabatic calorimetry | 483.98
310.87 K, Small (less than 1 g) adiabatic calorimetry | 484.5
313.66 K, Small (less than 1 g) adiabatic calorimetry | 486.08
316.47 K, Small (less than 1 g) adiabatic calorimetry | 487.53
319.29 K, Small (less than 1 g) adiabatic calorimetry | 489.61
320 K, Vacuum adiabatic calorimetry | 490.09
322.13 K, Small (less than 1 g) adiabatic calorimetry | 491.52
324.98 K, Small (less than 1 g) adiabatic calorimetry | 493.16
327.85 K, Small (less than 1 g) adiabatic calorimetry | 495.06
330 K, Vacuum adiabatic calorimetry | 496.49
330.74 K, Small (less than 1 g) adiabatic calorimetry | 496.98
333.64 K, Small (less than 1 g) adiabatic calorimetry | 498.96
336.55 K, Small (less than 1 g) adiabatic calorimetry | 500.86
339.48 K, Small (less than 1 g) adiabatic calorimetry | 502.59
340 K, Vacuum adiabatic calorimetry | 502.96
342.43 K, Small (less than 1 g) adiabatic calorimetry | 504.71
345.39 K, Small (less than 1 g) adiabatic calorimetry | 506.48
348.36 K, Small (less than 1 g) adiabatic calorimetry | 508.66
350 K, Vacuum adiabatic calorimetry | 509.84
351.35 K, Small (less than 1 g) adiabatic calorimetry | 510.81
354.35 K, Small (less than 1 g) adiabatic calorimetry | 513
357.37 K, Small (less than 1 g) adiabatic calorimetry | 514.97
360.4 K, Small (less than 1 g) adiabatic calorimetry | 517.24

From the NIST ThermoML archive (doi:10.1016/j.jct.2012.03.031)
